Results taken from patent US11236352B2, “Transgenic plants resistant to non-protein amino acids” (Yeda Research and Development Co. Ltd., priority 2011, dated 2022).

Key:
Arabidopsis thaliana [1] = settings: in vivo; cited from earlier work
[2] = tested on: cyt-PheRS Arabidopsis thaliana lines; assay: m-Tyr resistance: root growth on MS medium with m-Tyr, cyt-PheRS line; assay type: in vivo; settings: cyt-PheRS expressing line, 20 μM m-Tyr in growth media, 7 days
Procedure: (§1) Root growth of Wt (wild type), Cyt (transgenic plant containing cytosol localized bacterial PheRS) and Dual (transgenic plant containing plastids localized bacterial PheRS). Upper panels: samples grown on media containing 20 μM m-Tyrosine. Bottom panels: non-treated samples.
(§2) To assess effects of m-Tyr on Arabidopsis root growth, […] of m-Try was added to MS medium. Arabidopsis seeds were sterilized by shaking in 30% bleach. 0.3% Triton X-100 for 10 min, followed by three rinses with sterile distilled water. Petri dishes with seeds on agar medium were cold-stratified for 72 h at 4° C., and were subsequently placed vertically in green-house at 23° C., under 16:8 h light/dark cycle. After 7 days of growth, the root length of the plant was analyzed.
(§3) The bacterial PheRS genes described in the “Material and Methods” section hereinabove were expressed under the control of the constitutive 35S CaMV promoter. A transit peptide was appended to N-terminus of EcPheRS-α and EcPheRS-β subunits of the bacterial enzyme in order to direct them into the mitochondria and chloroplast of Arabidopsis thaliana. The second constructs pair including PheRS-α and PheRS-β lacked the transit peptides. […] Several independent transgenic lines were obtained, and their resistance to m-Tyr was analyzed. […]

Arabidopsis thaliana [3] = settings: added to an agar medium; read-out: concentration that inhibits root growth by 50%; cited from earlier work
[4] = tested on: wild-type Arabidopsis thaliana; assay: m-Tyr resistance: root growth on MS medium with m-Tyr, wild type; assay type: in vivo; settings: wild type plants, 20 μM m-Tyr in growth media, 7 days
Procedure: as §1, §2, §3

bacterial PheRS [5] = settings: incubated with bacterial PheRS; cited from earlier work
bacterial PheRS [6] = biological target: bacterial PheRS (Thermus thermophilus, UniProt Q5SGX1+Q5SGX2); settings: FIG. 1; cited from earlier work
Sequence of bacterial PheRS (Thermus thermophilus, UniProt Q5SGX1+Q5SGX2) (Q5SGX1 whole entry): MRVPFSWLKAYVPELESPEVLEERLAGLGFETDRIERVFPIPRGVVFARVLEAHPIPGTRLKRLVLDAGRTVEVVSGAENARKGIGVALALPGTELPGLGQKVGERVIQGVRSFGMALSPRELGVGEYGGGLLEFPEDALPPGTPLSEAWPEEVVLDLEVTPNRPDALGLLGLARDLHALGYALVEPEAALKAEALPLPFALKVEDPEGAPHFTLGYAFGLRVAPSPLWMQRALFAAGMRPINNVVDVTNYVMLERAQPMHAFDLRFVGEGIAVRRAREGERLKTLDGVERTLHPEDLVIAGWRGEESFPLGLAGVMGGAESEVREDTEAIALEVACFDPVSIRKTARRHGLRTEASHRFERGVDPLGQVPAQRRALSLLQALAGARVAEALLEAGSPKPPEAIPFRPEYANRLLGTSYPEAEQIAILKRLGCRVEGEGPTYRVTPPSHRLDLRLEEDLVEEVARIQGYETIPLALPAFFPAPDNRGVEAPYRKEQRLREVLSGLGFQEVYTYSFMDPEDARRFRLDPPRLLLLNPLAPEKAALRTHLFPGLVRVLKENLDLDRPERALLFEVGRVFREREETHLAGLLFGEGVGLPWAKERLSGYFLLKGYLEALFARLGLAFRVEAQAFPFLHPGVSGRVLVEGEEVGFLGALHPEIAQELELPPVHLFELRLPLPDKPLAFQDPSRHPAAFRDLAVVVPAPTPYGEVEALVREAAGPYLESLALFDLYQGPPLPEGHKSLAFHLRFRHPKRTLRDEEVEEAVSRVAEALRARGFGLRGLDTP
Sequence of bacterial PheRS (Thermus thermophilus, UniProt Q5SGX1+Q5SGX2) (Q5SGX2 whole entry): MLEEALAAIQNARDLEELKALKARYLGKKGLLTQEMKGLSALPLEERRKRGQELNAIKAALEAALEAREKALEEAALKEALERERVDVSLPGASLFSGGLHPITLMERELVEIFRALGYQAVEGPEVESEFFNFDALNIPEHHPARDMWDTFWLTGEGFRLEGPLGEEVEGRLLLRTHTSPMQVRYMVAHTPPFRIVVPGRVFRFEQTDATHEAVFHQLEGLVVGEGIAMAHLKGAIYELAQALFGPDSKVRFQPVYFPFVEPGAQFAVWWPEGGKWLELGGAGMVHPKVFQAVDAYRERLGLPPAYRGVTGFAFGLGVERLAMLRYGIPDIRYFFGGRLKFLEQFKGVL

[7] = tested on: mtp-PheRS Arabidopsis thaliana lines; assay: m-Tyr resistance: root growth on MS medium with m-Tyr, mtp-PheRS line; assay type: in vivo; settings: lines containing mtp-PheRS, 20 μM m-Tyr in growth media, 7 days
Procedure: as §1, §2, §3

HsmtPheRS = biological target: T1, HsmtPheRS (Homo sapiens, UniProt O95363); settings: mitochondrial enzyme, no editing domain; cited from earlier work
T1 sequence (O95363 1-451): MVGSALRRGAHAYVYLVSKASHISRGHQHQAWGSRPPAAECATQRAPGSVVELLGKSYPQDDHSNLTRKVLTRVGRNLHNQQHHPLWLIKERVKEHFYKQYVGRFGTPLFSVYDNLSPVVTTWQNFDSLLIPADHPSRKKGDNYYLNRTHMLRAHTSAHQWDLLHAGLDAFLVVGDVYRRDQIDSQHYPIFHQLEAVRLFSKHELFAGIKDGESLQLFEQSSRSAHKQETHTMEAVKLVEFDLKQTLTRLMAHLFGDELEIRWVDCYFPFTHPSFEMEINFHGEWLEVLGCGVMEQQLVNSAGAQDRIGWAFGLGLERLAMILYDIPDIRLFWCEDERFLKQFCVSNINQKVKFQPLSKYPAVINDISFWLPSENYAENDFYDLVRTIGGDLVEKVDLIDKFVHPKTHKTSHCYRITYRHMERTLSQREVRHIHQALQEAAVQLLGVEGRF

Question: For N[C@@H](Cc1cccc(O)c1)C(=O)O [m-Tyr, meta-tyrosine], which “concentration that completely prevents seed germination” value (Arabidopsis thaliana [1]) is on record?
Answer: 50 µM

Question: What about the root development [2] of the same compound?
Answer: less developed compared to the line containing mtp-PheRS

Question: And the IC50 (Arabidopsis thaliana [3])?
Answer: 2 µM

Question: And the root development [4]?
Answer: didn't develop

Question: And the “deacylation of m-Tyr from preloaded m-Tyr-tRNA^Phe” value (bacterial PheRS [5])?
Answer: deacylated from the tRNA

Question: What about the “mischarging of tRNA^Phe with m-Tyr” value (bacterial PheRS [6]) of the same compound?
Answer: no mischarging

Question: What about the root development [7] of the same compound?
Answer: developed up to the half of the length of the non-treated plants

Question: And the “synthesis of m-Tyr-tRNA^Phe” value (HsmtPheRS)?
Answer: could stably synthesize m-Tyr-tRNA^Phe
